Results as given in article PMC8567202, “Phosphoinositide-binding activity of Smad2 is essential for its function in TGF-β signaling” (The Journal of Biological Chemistry, 2021).

Tests used:
Format in all cases: cell-based
HeLa cells [1] = experiment: TIRF imaging of PM localization of EGFP-Smad2; details: HeLa cells, 10 ng/ml TGF-β, SB-431542 10 μM for 36 h where used
Method: (§1) Figure 4 Quantitative imaging analyses of spatiotemporal dynamics of Smad2.A, TIRF images of mouse EGFP-Smad2-WT transfected into HeLa cells whose endogenous Smad2 is suppressed by siRNA. Images were taken before and 5 min after TGF-β stimulation (10 ng/ml) with and without PI(4,5)P2 depletion. A pseudo-coloring scheme was used with orange and blue representing the highest and the lowest intensity, respectively. B, kinetics of TGF-β stimulated (10 ng/ml) PM localization of EGFP-Smad2-WT (blue), -K420A (green), and -W422A (orange) transfected into HeLa cells the endogenous Smad2 of which was suppressed by siRNA. For EGFP-Smad2-WT, the effect of PI(4,5)P2 depletion (black) and TβRI inhibition by SB-431542 (10 μM for 36 h) (red) were measured. Data points indicate average ±S.D. (n = 10 cells). C, spatially resolved PM PI(4,5)P2 concentration ([PI(4,5)P2]) profiles calculated from two-channel cross-sectional images of HeLa cells (before and 5 min after 10 ng/ml TGF-β stimulation and after PI(4,5)P2 depletion). Each cell is a representative of more than ten cells analyzed. Spatially averaged [PI(4,5)P2] values for each cell type are shown. […] E, time courses of the half-life of colocalization for SNAP-TMR-labeled TβRI and EGFP-Smad2 determined by dual color single-molecule tracking analysis. […] For EGFP-Smad2-WT, the effect of PI(4,5)P2 depletion (purple) was measured. […]

TβRI = experiment: Dual color single-molecule tracking, TβRI and EGFP-PLCδ-PH; details: HeLa cells
HeLa cells [2] = experiment: Ratiometric PI(4,5)P2 imaging; details: 10 ng/ml TGF-β
Method: as §1

NC(=O)c1ccc(-c2nc(-c3ccc4c(c3)OCO4)c(-c3ccccn3)[nH]2)cc1 [SB-431542, reference compound]
PM residence / dissociation of Smad2 (HeLa cells [1]): greatly elongated the PM residence of Smad2

EGFP-phospholipase Cδ-pleckstrin homology domain [EGFP-PLCδ-PH]
time of maximal dwell time of TβRI-PLCδ-PH complex after TGF-β stimulation (TβRI; 10 ng/ml TGF-β, n = 10 cells): 5 min | colocalization of TMR-SNAP-TβRI and EGFP-PLCδ-PH after PI(4,5)P2 depletion (TβRI; before and after TGF-β stimulation): eliminated colocalization

TGF-β: TGF-β1 was purchased from Millipore sigma (Cat no. T7039-2UG)
effect on PM PI(4,5)P2 distribution and spatially averaged concentration (HeLa cells [2]): neither spatiotemporal distribution of PI(4,5)P2 nor the spatially averaged PI(4,5)P2 concentration was altered
